≈ marks a conversion by molar mass, not a printed value. Calls of active or inactive are those of the source. No cut-off for these calls is given here.

Data set [1] can be described thus: Aqueous solubility at pH 7.4. Format: physicochemical. As to conditions: buffer.
The nature of data set [2]: Aqueous solubility at pH 1.3. The format is physicochemical. Conditions: buffer.
The subject of data set [3] is Rattus norvegicus. Kind of data set: Increase in plasmatic Glutathione peroxidase activity after 1 hr of administration of 160.54 mg/kg to Wistar rats. Format: functional, organism-based. Details: dose 160.54 mg/kg.
The subject of data set [4] is Rattus norvegicus. Kind of data set: Decrease in plasmatic superoxide dismutase activity after 1 hr and 3 hrs of administration of 160.54 mg/kg to Wistar rats. Details: dose 160.54 mg/kg. The format is functional, organism-based.
Data set [5] is described as follows: Partition co-efficient, log P of the compound. Format: physicochemical. As to conditions: octanol/water.
A short description of data set [6]: Solubility in water. Format: physicochemical.
The test system of data set [7] is Rattus norvegicus. Briefly: Decrease in grooming behavior of Wistar rats after 1 hr of administration of 160.54 mg/kg. Format: functional, organism-based. The arrangement: dose 160.54 mg/kg.
The nature of data set [8]: Aqueous solubility at pH 5.0. The format is physicochemical. As to conditions: buffer.
For data set [9], the system named is Rattus norvegicus. Briefly: Decrease in plasmatic superoxide dismutase activity after 1 hr and 3 hrs of administration of 132.64 mg/kg to Wistar rats. The arrangement: dose 132.64 mg/kg. Format: functional, organism-based.
For data set [10], the system named is Rattus norvegicus. Briefly: Increase in plasmatic Glutathione peroxidase activity after 1 hr of administration of 132.64 mg/kg to Wistar rats. Format: functional, organism-based. Details: dose 132.64 mg/kg.
Data set [11] relates to Rattus norvegicus. Kind of data set: Decrease in grooming behavior of Wistar rats after 2 hrs of administration of 132.64 mg/kg. Format: functional, organism-based. Details: dose 132.64 mg/kg.
In data set [12] the test system is Rattus norvegicus. Kind of data set: Increase in plasmatic Glutathione peroxidase activity after 3 hrs of administration of 132.64 mg/kg to Wistar rats. Format: functional, organism-based. The arrangement: dose 132.64 mg/kg.

For `COC(=O)[C@H](Cc1ccc(OC(C)=O)c(OC(C)=O)c1)NC(=O)CCCC[C@@H]1CCSS1`, the solubility in data set [1] was 38 µg/mL (≈ 78.6 µM); in data set [2] it was 39 µg/mL (≈ 80.6 µM); in data set [6], 233 µg/mL (≈ 482 µM); in [8], 24 µg/mL (≈ 49.6 µM). In addition, the outcome with Rattus norvegicus [3], in the data set on Rattus norvegicus [4] and in the data set on Rattus norvegicus [7] was Active. Besides, the logP in data set [5] came out at 2.77.
Turning to `COC(=O)[C@H](Cc1ccc(O)c(O)c1)NC(=O)CCCC[C@@H]1CCSS1`, the result in the data set on Rattus norvegicus [9], in the data set on Rattus norvegicus [10], with Rattus norvegicus [11] and in the data set on Rattus norvegicus [12] was Active. In addition, the figures for the solubility in data set [1], in [6] and in [8] were 13 µg/mL (≈ 32.5 µM), 12 µg/mL (≈ 30 µM) and 11 µg/mL (≈ 27.5 µM), respectively. The same compound displayed a logP in data set [5] of 2.16.
Turning to `CC(=O)Oc1ccc(CCNC(=O)CCCC[C@@H]2CCSS2)cc1OC(C)=O`, the solubility in data set [1] came out at 52 µg/mL (≈ 122 µM); in [2], 0.47 µg/mL (≈ 1.1 µM); in [6] it was 49 µg/mL (≈ 115 µM); in [8], 47 µg/mL (≈ 110 µM). The logP in data set [5] came to 3.65.
For the compound `O=C(CCCC[C@@H]1CCSS1)NCCc1ccc(O)c(O)c1`, the solubility in data set [1] turned out to be 1.1 µg/mL (≈ 3.22 µM); in data set [2], 0.87 µg/mL (≈ 2.55 µM); in [6], 0.36 µg/mL (≈ 1.05 µM). This compound returned a logP in [5] of 3.4.

Values taken from ChEMBL document CHEMBL1138135, “L-dopa- and dopamine-(R)-alpha-lipoic acid conjugates as multifunctional codrugs with antioxidant properties” (J Med Chem, 2006).
